Test results published in paper PMC10238102, “Anti-SARS-CoV-2 Activity of Adamantanes In Vitro and in Animal Models of Infection” (COVID, 2022).
“Also recorded” adds a separate entry of the source. Where two headings read alike, the source gives them in different places.

Legend:
[1] = system: icSARS-CoV-2-mNG; experiment: microbe, parasite or virus in culture; format: cell-based, SARS-CoV-2
[2] = system: SARS-CoV-2 WA/01; experiment: SARS-CoV-2 WA/01 immunostaining assay in ACE2-A549 cells; format: cell-based; conditions: MOI 0.1, anti-spike staining, 3 DPI (Figure 2A)
[3] = system: ACE2-A549 cells; experiment: CellTiter-Glo cell viability assay in ACE2-A549 cells
[4] = system: icSARS-CoV-2-mNG; experiment: microbe, parasite or virus in culture; format: cell-based, SARS-CoV-2; conditions: Severe acute respiratory syndrome coronavirus 2, read-out: IC50 (virus titer by plaque assay)
[5] = system: Influenza A/Hong Kong/8/68 (H3N2); experiment: microbe, parasite or virus in culture; format: cell-based
[6] = Cell viability (CC50) in Vero E6-TMPRSS2-T2A-ACE2 cells; format: cell-based; conditions: African green monkey, Vero E6 T/A cells, Figure 3
[7] = system: SARS-CoV-2 WA/01; experiment: SARS-CoV-2 WA/01 antiviral assay in Vero E6 cells; format: cell-based; conditions: Severe acute respiratory syndrome coronavirus 2, Vero C1008, strain WA/01
[8] = system: SARS-CoV-2 WA/01; experiment: Golden Syrian hamster infection model, lung virus titer by plaque assay; format: in vivo, golden Syrian hamsters; conditions: 60 mg/kg i.p. every 12 h from 24 h before infection, 4 DPI
Procedure: The golden Syrian hamster experiment was performed by Dr. Anthony Griffith’s team at the Boston University School of Medicine. Adult hamsters (3 males and 3 females per group) were administered with antiviral compounds i.p. starting 24 h prior to infection until completion of the study. Hamsters were infected with SARS-CoV-2 WA/01 i.n. (4 × 10^4 PFU in 100 μL). At 4 DPI, hamsters underwent euthanasia and their lungs were collected to perform plaque assays to measure virus titer in the tissues. Lung tissue from each hamster was stored at −80 °C prior to titer. Tissues were removed from −80 °C and thawed at 4 °C before being weighed and cut to a weight ≤100 mg. Each tissue sample was then homogenized using a TissueLyser II (Qiagen, Germantown, MD, USA) in a final volume of 1 mL using DMEM/2% FBS/antibiotic-antimycotic (Gibco™). Each tissue homogenate was then diluted and 200 μL of each dilution or control was added to confluent monolayers of Vero E6 cells in duplicate and incubated for 1 h at 37 °C and 5% CO2. The plates were gently rocked every 5–10 min to prevent monolayer drying. […]

[9] = system: SARS-CoV-2; experiment: Summary of in vitro assays in human lung epithelial cells expressing ACE2; format: cell-based; conditions: Severe acute respiratory syndrome coronavirus 2, Epithelial cell, read-out: IC50 values (summary range)
[10] = system: SARS-CoV-2; conditions: obtained by Zhou et al.; cited from earlier work
[11] = system: SARS-CoV-2 protein E; set-up: method as in PMID 34893762; conditions: expressed in X. laevis oocytes; cited from earlier work
[12] = system: SARS-CoV-2 ORF10; set-up: method as in PMID 34893762; conditions: expressed in X. laevis oocytes; cited from earlier work
[13] = in vitro; conditions: human
[14] = cited from earlier work
[15] = cited from earlier work; remark: listed apart in the source
[16] = CellTiter-Glo cell viability assay in ACE2-A549 cells; conditions: human
[17] = Body weight and deaths of treated, infected BALB/c mice; conditions: 60 mg/kg i.n. every 12 h, n = 6 mice per group
[18] = system: ACE2-A549 cells; conditions: human
[19] = Severe acute respiratory syndrome coronavirus 2
[20] = Severe acute respiratory syndrome coronavirus 2, ACE2-A549 cells

Structure (SMILES)	IC50 [1] [µM]	IC50 [1, 19] [µM]	IC50 [4] [µM]	IC50 [2, 20] [µM]	IC50 [5] [µM]	CC50 at 48 h [6] [µM]	IC50 [7] [µM]	lung virus titer vs no-drug control [8]	IC50 [9] [µM]	IC50 [10] [µM]	channel activity of protein E [11]	channel activity of ORF10 [12]	CC50 [13] [µM]	further results
O=c1nc(NO)ccn1[C@@H]1O[C@H](CO)[C@@H](O)[C@H]1O [EIDD-1931]	–	–	–	–	–	–	–	–	–	–	–	–	–	IC50 ([1]; read-out: IC50): 1.5 µM; IC50 ([2]; ACE2-A549 cells, read-out: IC50): 0.36 µM; CC50 ([3]; Figure 1A): 130 µM; CC50 ([3]; Figure 2A): 100 µM
NC12CC3CC(CC(C3)C1)C2 [amantadine]	120	120	34.6	136	0.46	≥ 1000	413	did not significantly inhibit	120 to 130	116	decreased channel activities	decreased channel activities	≥ 1000	Cmax ([14]; read-out: Cmax plasma level, mice, single-dose i.p. injection of 60 mg/kg): 47 µM; ratio of nasal mucus to plasma concentration, compared with rimantadine ([15]; after single 200-mg doses): about two-fold higher; concentration in autopsy lung tissue relative to serum concentration ([15]; autopsy lung tissue from an infant): 14 times; Cmax ([15]; multiple dose, 258 mg extended-release tablet once daily): 4.16 µM
NC(N)=NC(=O)c1nc(Cl)c(N2CCCCCC2)nc1N [hexamethylene-amiloride]	–	–	–	–	–	–	–	–	–	–	decreased channel activities	decreased channel activities	–	–
CCC(CC)COC(=O)[C@H](C)N[P@](=O)(OC[C@H]1O[C@@](C#N)(c2ccc3c(N)ncnn23)[C@H](O)[C@@H]1O)Oc1ccccc1 [remdesivir]	–	0.08	–	0.04	–	≥ 10	–	–	–	–	–	–	–	CC50 [16]: ≥ 3 µM
CC(N)C12CC3CC(CC(C3)C1)C2 (centres unmarked) [rimantadine]	29.8	30	12.6	34	0.05	≥ 300	121	modestly but significantly inhibited; also recorded: mild but significant antiviral effect	30 to 40	36	not reported to be inhibited	–	≥ 300	Cmax ([14]; mouse, in vivo, po, 40 mg/kg): 9.3 µM; Cmax ([15]; in vivo, 100 mg): 0.54 to 2.17 µM; mice found dead within 1 DPI [17]: Two
CN(C)CCOCC(=O)NC12CC3CC(CC(C3)C1)C2 [tromantadine]	97.6	98	88.9	56	94.2	–	–	–	60 to 100	–	–	–	312	CC50 [18]: 305 µM
